The series is described as follows: UV spectrum: absorption maxima, molar extinction coefficient and K value. The settings on record: for εM: in M-1·cm-1 (unit assumed); for UV absorption peaks: does not depend on the solvent nature and pH values. In kind it is physicochemical.

Where “and” joins values, the source holds several entries; their conditions need not be identical. Identical values can stand only once. Like-named read-outs stand apart in the source and are kept apart here.

Under “Solvent system Ethanol”, `Nc1ccc(C(=O)O)cc1` [PABA, 4-amino benzoic acid] displayed a Max ads. of 283.

Consider `Cc1ccc(C=C2C(=O)C3(C)CCC2C3(C)C)cc1` (stereo not shown) [3-(4-methylbenzylidene)-camphor, 3-(4-methylbenzylidene)-bornan-2-one], for which, under “Solvent system Ethanol”, the Max ads. amounted to 300.

`CC1CC(OC(=O)c2ccccc2O)CC(C)(C)C1` (stereo not shown) [Homosalate, 3,3,5-trimethyl cyclohexyl-2-h drox benzoate] registered a Max ads. (Solvent system Ethanol) of 306.

In the case of `CCCCC(CC)COC(=O)c1ccc(N(C)C)cc1` (stereo not shown) [Octyl dimethyl PABA, 2-ethylbexyl p-dimethylaminobenzoate], the Max ads. (Solvent system Ethanol) stood at 311.

Consider “Diethanolamine methoxy hydroxycinnamate [DEA methoxycinnamate]”, for which the K value is on record as 79.

Consider `O=S(=O)(O)c1ccc2nc(-c3ccccc3)[nH]c2c1` [Novantisol, 2-phenyl-benzimidazole-5-sulphonic acid], for which the Max ads. (0,1 N NaOH) was determined as 305.

`Nc1ccc(C(=O)OCC(O)CO)cc1` (stereo not shown) [Glyceryl PABA, 1,2,3-propanetriol,] yielded a Max ads. (Solvent system Ethanol) of 297.

For `CCOC(=O)c1ccc(N(CC(C)O)CC(C)O)cc1` (stereo not shown) [Ethyl dihydroxypropyl PABA, Ethyl-4-bis(2-hydroxypropyl)amino benzoic acid], the K value was determined as 119, the Max ads. was 311 and the “εM (Molar extinction coefficient)” value is recorded as 27,000.

In the case of 3,4,5-trihydroxystilbene [Resveratrol], the UV absorption peaks was 216 nm and 305 nm and 309 nm. Moreover, where the note is “at 216 nm”, the εM is 19,836. Moreover, the εM (at 305 nm) is 28,044. In addition, the εM (at 309 nm) is given as 27,816. Also, the UV absorption peaks (listed as resveratrol) is 305 nm and 309 nm.

For `CC(C)c1ccc(C(=O)CC(=O)c2ccccc2)cc1` [4-isopropyl dibenzoyl methane, 1-p-cumenyl-3-phenylpropane-1,3-dione], the Max ads. (Solvent system Ethanol) is 345.

As for `COc1ccc(C(=O)CC(=O)c2ccc(C(C)(C)C)cc2)cc1` [Butyl methoxy dibenzoyl methane, 4-t-butyl-4′-methoxydibenzoyl methane], under “Solvent system Ethanol”, the Max ads. was 358.

In turn, `CCCCC(CC)COC(=O)C=Cc1ccc(OC)cc1` (stereo not shown) [Octyl methoxycinnamate, 2-ethylhexyl-p-methoxycinnamate] had a Max ads. (Solvent system Ethanol) of 311.

In turn, `CCCCC(CC)COC(=O)c1ccccc1O` (stereo not shown) [Octyl salicylate, 2-ethylhexyl salicylate] registered a Max ads. (Solvent system Ethanol) of 307.

Values taken from patent US20040009197A1 (priority 2000, published 2004).
